Values after ≈ are worked out from the molar mass of the structure shown.
Legend:
Haemophilus influenzae = assay: Antibacterial activity against Haemophilus influenzae ATCC 43095 assessed as reduction in bacterial growth incubated for 20 hrs; format: functional
[1] = molecular target: T1, 1-deoxy-D-xylulose-5-phosphate synthase (Haemophilus influenzae (strain 86-028NP), UniProt Q4QKG6); assay: Inhibition of Haemophilus influenzae recombinant DXPS
T1 sequence (Q4QKG6 whole entry): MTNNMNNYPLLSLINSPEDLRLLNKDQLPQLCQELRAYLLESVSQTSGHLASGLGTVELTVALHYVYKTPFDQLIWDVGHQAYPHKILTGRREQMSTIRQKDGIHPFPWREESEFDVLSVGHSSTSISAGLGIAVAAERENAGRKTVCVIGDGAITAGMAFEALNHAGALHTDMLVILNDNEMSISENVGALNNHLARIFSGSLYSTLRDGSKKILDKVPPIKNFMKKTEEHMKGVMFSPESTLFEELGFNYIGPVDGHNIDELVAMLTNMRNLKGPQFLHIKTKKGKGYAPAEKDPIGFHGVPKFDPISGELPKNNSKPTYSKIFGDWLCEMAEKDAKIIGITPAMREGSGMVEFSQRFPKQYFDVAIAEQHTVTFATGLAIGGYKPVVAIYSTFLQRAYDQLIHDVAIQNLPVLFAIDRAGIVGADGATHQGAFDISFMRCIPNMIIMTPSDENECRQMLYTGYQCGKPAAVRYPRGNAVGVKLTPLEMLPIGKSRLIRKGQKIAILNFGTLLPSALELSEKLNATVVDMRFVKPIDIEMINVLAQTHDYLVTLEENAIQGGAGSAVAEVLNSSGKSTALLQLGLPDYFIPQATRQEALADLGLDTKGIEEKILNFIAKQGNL

[2] = Inhibition of N-terminal his-tagged Chlamydomonas DXPS
Escherichia coli = assay: Antibacterial activity against Escherichia coli W3110 assessed as reduction in bacterial growth incubated for 20 hrs; format: functional
HFF = assay: Cytotoxicity against human HFF cells assessed as inhibition of cell proliferation upto 1000 uM incubated for 96 hrs by SYBR-safe assay; format: toxicity, cell-based
[3] = Permeability of the compound assessed as absorbed fraction incubated for 10 hrs by PAMPA assay; format: ADME

Row | SMILES | MIC (Haemophilus influenzae) | IC50 [1] | IC50 [2] | MIC (Escherichia coli) | Activity (HFF) | permeability [3]
1 | CC(C)(C(=O)O)C(=O)N(O)Cc1ccccc1Cl | 117 µM (≈ 31.8 µg/mL) |  |  |  |  | 
2 | CC1(C)C(=O)ON(Cc2ccccc2Cl)C1=O [KETOCLOMAZONE] | 31 µM (≈ 7.86 µg/mL) | 28 µM | 100 µM | 3100 µM (≈ 786 µg/mL) | Non-Toxic | 47%

Source: ChEMBL document CHEMBL5532701 (RSC Med Chem, 2024)
